What all share (format): cell-based, murine
One assay deals with B16 melanoma cells. Nature of the assay: Calcium dependence of cell aggregation. The following applies: absence of Ca^++; 3 lines, after 1 and 3 hours.
The subject of a further assay is B16 C3 line. In words: Proliferation, cell count (Malassez hemocytometer). The note with it: B16 C3 on PS in the presence of MSH (same in its absence), 48 hours. As to the method: (§1) The cells are cultured in medium supplemented by 10% foetal calf serum, 1% L-Glutamine and 0.5% antibiotics (penicillin, streptomycin).
(§2) —b—proliferation: 10,000 cells are seeded per cm^2. The cells are counted (Malassez hemocytometer) after culture for 24 and 48 hours.
(§3) It should be noted that the B16 F0 and B16 F10 lines proliferate more on cellulose that the B16 C3 line, which is non-metastatic. The number of B16 F0 and F10 cells is multiplied by 3 on cellulose. It is multiplied by 6 on PS, in the presence or absence of MSH 10^−7 M melanin-stimulating hormone used as a second control.

In the next assay the test system is B16 F0 and B16 F10 lines. Nature of the assay: Proliferation, cell count (Malassez hemocytometer). The note with it: B16 F0 and F10 on PS in the presence of MSH 10^−7 M (same in its absence). As to the method: as §1, §2, §3
Another assay has as its system Fn. Nature of the assay: Fn synthesis (indirect immunolabelling). The following applies: three melanoma lines cultured on PS with MSH.

For the substance monencin, the “percentage of cells isolated” value in the assay with B16 melanoma cells is “very significantly increased”.
Regarding melanin-stimulating hormone [MSH], the “number of cells multiplied by” value in the assay with B16 C3 line was determined as 2; with B16 F0 and B16 F10 lines it was 6. The Fn synthesis entry in the assay with Fn is listed as “increase in Fn synthesis”.

These data come from patent publication US20070269793A1, “Bioactive Boxes for Cellular Cultures” (priority 2003, published 2007).
